Assay results taken from patent US20030202977A1, “Treatment of osteoarthritis” (New York University, priority 1998, published 2003).
Marks after values point to notes of the source that are not given here.

Assays:
[1] = system: human osteoarthritis-affected cartilage; test: Osteoarthritis-explant assay: release of inflammatory mediators from cartilage organ cultures; format: cell-based; conditions: for Effect on PGE2 production / Effect on NO production/accumulation: osteoarthritis-affected cartilage; for Effect on NO production/accumulation: compared to control cartilage; for Nitrite / PGE2: per 100 mg cartilage, 72 hours post stimulation, mean ± S.D., n=3; for Nitrite: JBS5 0.5 μg/ml, αvβ3 Abs 5 μg/ml, L-NMMA 500 μM, IL-1β 1 ng/ml, RGD or RGE 1 mg/ml, control 1.2 ± 0.2; for PGE2: control 13.1 ± 0.2
Description: ELISA kits for IL-1β, IL-6 and IL-8 were purchased from R and D (Minneapolis, Minn.). Cyclic RGD and RGE peptides were procured form Bachem Biosciences, Inc. (King of Prussia, Pa.). Anti-αvβ3 (JBS5) and anti-3 (LM609) were purchased from Chemicon International (Temecula, Calif.). Another anti-αvβ3 antibody (mAb13) was a generous gift from Dr. Yamada (NIH, Bethesda, Md.).
Cartilage slices were taken from the knees of patients who had been diagnosed with advanced osteoarthritis, ages 50-70 years, who were undergoing knee replacement surgery. Non-arthritic knee cartilage, normal control, ages 20-70 years, was obtained from patients with fractures or from accident victims after knee amputation.
Knee articular cartilage from osteoarthritis patients or normal individuals was cut into 3 mm discs, and 4-6 discs were placed (triplicate or quadruplicate) into a 24-well plate containing 2 ml F-12 medium+0.1% human albumin in the presence or absence of anti-αvβ3 (JBS5) or anti-3 (LM609) antibodies along with various modulators, as previously described by Amin et al (1995 and 1997).
(§1) NO production was measured by estimating the stable NO metabolite, nitrite, in condition medium by modified Griess reaction, Gilliam et al (1993). PGE2 was analyzed from supernatant by RIA, Amin et al (1997).
OA-affected cartilage was incubated in the medium with various modulators: 0.5 μg/ml of α5β1 (JBS5), 5 μg/ml αvβ3 Abs, L-NMMA (500 μM), IL-1β (1 ng/ml), 1 mg/ml of RGD or RGE. The accumulation of IL-1β, IL-8, IL-6, nitrite and PGE2 were estimated 72 hours post stimulation. Data represents±S.D. where n=3. The P values described are compared with the (control) unstimulated OA-affected cartilage. The data represent one of the two similar experiments.

[2] = system: primary bovine chondrocytes; test: NO and PGE2 production in primary bovine chondrocytes; format: cell-based
Experimental: Bovine chondrocytes were seeded in 24 well plates at a density of 0.5×10^6 cells/well in 2 ml medium. After 24 hours post-seeding, the cells were treated with either 50 ng of JBS5 monoclonal antibody or 1 ng/ml IL-1β alone and in the presence and absence of 0.5 μg/ml of sIL-1RII for 72 hours. NO and PGE2 were estimated as described in Materials and Methods. The data present one of the two similar experiments. Data represent mean±s.d. value. The p values described are compared with IL-l (*) or anti-α5β1 monoclonal antibody (**); *p≦0.01, **p≦0.01.
Bovine chondrocytes were seeded in 24 well plates and stimulated with 1 ng/ml Il-1β, 100 μg/ml LPS, IL-1β+LPS+TNFα and anti-α5β1 monoclonal antibody in the presence or absence of 5 μg/ml anti-αvβ3. The accumulation of NO and PGE2 was estimated at the end of 72 hours. The data represent one of the two similar experiments the data represent mean±s.d. value.
Bovine chondrocytes were isolated as previous described by Attur et al 1998. Briefly, cartilage slices from bovine cartilage were finely minced and digested sequentially with 0.2% testicular hyaluronidase for five minutes at 37° C., and 0.2% collagenase for 1-2 hours at 37° C. After being strained through sterile nylon mesh, the cells were centrifuged at 1200×g for ten minutes. The cell pellets were washed twice with Ham's F-12 medium, followed by resuspension and centrifuging at 1000×g for ten minutes. Finally, the pellets were suspended in complete F-12 medium before being plated to flasks.
as §1

[3] = target: α5β1 integrin of human cartilage chondrocytes (human) (UniProt P08648); test: cell-based or functional assay
chondrocytes = test: Nitric oxide versus PGE2 production in chondrocytes; format: cell-based

Sequence of UniProt P08648 (P08648 42-1049, chain 1 of 2): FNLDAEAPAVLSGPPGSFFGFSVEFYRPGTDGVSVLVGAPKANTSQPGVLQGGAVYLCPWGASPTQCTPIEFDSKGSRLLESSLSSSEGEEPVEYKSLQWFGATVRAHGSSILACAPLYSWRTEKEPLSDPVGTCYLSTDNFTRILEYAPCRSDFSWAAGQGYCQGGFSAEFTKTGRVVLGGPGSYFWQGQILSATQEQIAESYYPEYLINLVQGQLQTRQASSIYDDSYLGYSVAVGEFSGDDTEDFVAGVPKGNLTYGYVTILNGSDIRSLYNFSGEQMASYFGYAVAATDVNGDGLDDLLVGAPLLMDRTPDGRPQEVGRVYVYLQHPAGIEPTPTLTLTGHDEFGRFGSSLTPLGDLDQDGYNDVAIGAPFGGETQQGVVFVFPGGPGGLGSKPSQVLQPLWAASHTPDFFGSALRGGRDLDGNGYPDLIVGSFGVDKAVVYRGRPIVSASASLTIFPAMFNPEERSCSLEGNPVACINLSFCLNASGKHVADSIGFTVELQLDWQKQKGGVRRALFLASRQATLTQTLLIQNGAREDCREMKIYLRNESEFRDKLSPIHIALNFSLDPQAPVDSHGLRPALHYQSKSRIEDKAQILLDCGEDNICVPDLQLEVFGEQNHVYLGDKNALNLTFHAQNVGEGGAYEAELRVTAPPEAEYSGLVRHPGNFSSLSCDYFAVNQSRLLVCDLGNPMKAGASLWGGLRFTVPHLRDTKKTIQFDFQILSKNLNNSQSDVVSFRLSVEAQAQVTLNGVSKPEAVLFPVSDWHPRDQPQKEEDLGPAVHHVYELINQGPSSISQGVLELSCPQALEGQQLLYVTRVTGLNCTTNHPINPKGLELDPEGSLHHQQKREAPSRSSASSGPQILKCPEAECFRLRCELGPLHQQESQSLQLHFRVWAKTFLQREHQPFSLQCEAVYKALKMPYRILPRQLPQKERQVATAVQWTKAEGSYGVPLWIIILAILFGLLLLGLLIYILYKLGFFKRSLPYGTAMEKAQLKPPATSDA
Sequence of UniProt P08648 (P05556 21-798, chain 2 of 2, further chain): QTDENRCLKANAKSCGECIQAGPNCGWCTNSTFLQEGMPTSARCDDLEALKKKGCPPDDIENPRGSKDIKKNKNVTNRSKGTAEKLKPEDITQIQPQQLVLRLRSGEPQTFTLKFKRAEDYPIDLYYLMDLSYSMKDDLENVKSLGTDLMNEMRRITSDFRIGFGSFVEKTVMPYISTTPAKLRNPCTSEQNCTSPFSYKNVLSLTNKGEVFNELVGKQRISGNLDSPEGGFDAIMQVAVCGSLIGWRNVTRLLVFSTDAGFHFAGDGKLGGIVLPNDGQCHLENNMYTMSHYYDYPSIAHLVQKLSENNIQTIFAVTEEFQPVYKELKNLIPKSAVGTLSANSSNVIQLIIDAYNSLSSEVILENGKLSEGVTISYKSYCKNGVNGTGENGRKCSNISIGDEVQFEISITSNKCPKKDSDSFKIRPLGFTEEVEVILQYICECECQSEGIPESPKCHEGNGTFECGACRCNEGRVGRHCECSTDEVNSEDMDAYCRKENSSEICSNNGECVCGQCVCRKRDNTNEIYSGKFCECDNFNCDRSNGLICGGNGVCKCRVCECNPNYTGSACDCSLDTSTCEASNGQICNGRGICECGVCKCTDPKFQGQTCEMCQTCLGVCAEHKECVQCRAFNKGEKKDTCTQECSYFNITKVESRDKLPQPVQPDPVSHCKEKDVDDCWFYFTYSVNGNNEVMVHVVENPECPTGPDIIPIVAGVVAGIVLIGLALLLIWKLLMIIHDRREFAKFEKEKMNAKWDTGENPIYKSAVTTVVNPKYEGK

CNC(=N)NCCC[C@H](N)C(=O)O [NMMA]
Effect on PGE2 production [1]: augmented
Effect on NO production/accumulation [1]: inhibition
Nitrite [1]: 0.8 ± 0.1^c μM
PGE2 [1]: 18.4 ± 0.8^c ng/ml

IL-1β: cytokine used as positive control, 1 ng/ml
Effect on NO and PGE2 (inflammatory mediator) production, substance added as modulator ([2]; primary bovine chondrocytes): up-regulation
Effect on PGE2 production [1]: augmented
Effect on NO production/accumulation [1]: augmented
Nitrite [1]: 17.3 ± 2.4^a μM
PGE2 [1]: 29.6 ± 7.2^c ng/ml

JBS5 monoclonal antibody
IL-1β, human OA-affected cartilage explants, 72 h, 0.5 µg/ml JBS5 (pg/ml per 100 mg cartilage) [3]: 87.6
IL-6, human OA-affected cartilage explants, 72 h, 0.5 µg/ml JBS5 (ng/ml per 100 mg cartilage) [3]: 17.7
IL-8, human OA-affected cartilage explants, 72 h, 0.5 µg/ml JBS5 (ng/ml per 100 mg cartilage) [3]: 17.7
Nitrite, human OA-affected cartilage explants, 72 h, 0.5 µg/ml JBS5 (µM per 100 mg cartilage) [3]: 12.7
PGE2, human OA-affected cartilage explants, 72 h, 0.5 µg/ml JBS5 (ng/ml per 100 mg cartilage) [3]: 19.1

osteopontin: soluble secretory phosphoprotein, ligand of αvβ3
Inhibition of PGE2 production relative to nitric oxide production (chondrocytes): equally inhibit
Effect on NO production/accumulation [1]: inhibited

B1: sIL-1RII: recombinant soluble type II IL-1 receptor cloned from human neutrophils, released from Sf9 insect cells (protein)
chain: FTLQPAAHTGAARSCRFRGRHYKREFRLEGEPVALRCPQVPYWLWASVSPRINLTWHKNDSARTVPGEEETRMWAQDGALWLLPALQEDSGTYVCTTRNASYCDKMSIELRVFENTDAFLPFISYPQILTLSTSGVLVCPDLSEFTRDKTDVKIQWYKDSLLLDKDNEKFLSVRGTTHLLVHDVALEDAGYYRCVLTFAHEGQQYNITRSIELRIKKKKEETIPVIISPLKTISASLGSRLTIPCKVFLGTGTPLTTMLWWTANDTHIESAYPGGRVTEGPRQEYSENNENYIEVPLIFDPVTREDLHMDFKCVVHNTLSFQTLRTTVKE
Effect on IL-1β induced accumulation of NO and PGE2 ([2]; preincubation of cells for fifteen minutes): blocked
Effect on anti-αvβ3 monoclonal antibody induced production of NO and PGE2 ([2]; preincubation of cells for fifteen minutes, inducer is JBS5): blocked
Effect on production of IL-1, nitric oxide, PGE2, IL-6, IL-8 and MMPs ([1]; human arthritis affected cartilage, ex vivo, in the presence or absence of IL-1): inhibits
Effect on IL-1β and JBS5 monoclonal antibody induced NO and PGE2 production ([1]; osteoarthritis cartilage explants, FIG. 1b): inhibited significantly
